Assay results from patent publication US6515002B2, “Compounds and compositions for treating C1s-mediated diseases and conditions” (3-Dimensional Pharmaceuticals, Inc., priority 1999, dated 2003).

Biological target: T1, C1s (Homo sapiens, UniProt P09871)
T1 construct: purchased Enzyme Research, South Bend, Ind
T1 sequence (P09871 438-688 limits assumed): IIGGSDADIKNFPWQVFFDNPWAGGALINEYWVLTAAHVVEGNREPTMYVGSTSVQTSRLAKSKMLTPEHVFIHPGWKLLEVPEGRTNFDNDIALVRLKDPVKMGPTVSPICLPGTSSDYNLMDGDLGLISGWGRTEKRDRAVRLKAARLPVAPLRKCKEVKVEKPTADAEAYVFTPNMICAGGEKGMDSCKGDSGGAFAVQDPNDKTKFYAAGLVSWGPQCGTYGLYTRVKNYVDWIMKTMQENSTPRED
T1 sequence (P09871 16-437 partner limits assumed): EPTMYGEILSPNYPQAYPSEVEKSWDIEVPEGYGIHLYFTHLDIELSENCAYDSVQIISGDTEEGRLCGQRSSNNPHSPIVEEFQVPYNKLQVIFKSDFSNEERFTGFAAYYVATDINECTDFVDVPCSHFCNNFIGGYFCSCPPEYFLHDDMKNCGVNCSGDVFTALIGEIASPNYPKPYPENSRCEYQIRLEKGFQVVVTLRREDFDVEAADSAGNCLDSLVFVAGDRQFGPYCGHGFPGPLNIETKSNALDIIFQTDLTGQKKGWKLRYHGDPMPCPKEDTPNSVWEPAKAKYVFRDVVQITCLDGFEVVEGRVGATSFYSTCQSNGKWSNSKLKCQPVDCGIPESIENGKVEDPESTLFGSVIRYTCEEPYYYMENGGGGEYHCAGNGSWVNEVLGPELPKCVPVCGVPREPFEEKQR
Experiment: In vitro Inhibition of C1s (Ki determination, Z-Gly-Arg-5-Bzl/DTNB hydrolysis)
Assay type: biochemical
Conditions: purified activated C1s 7.3 nM, substrate Z-Gly-Arg-5-Bzl 45 μM, DTNB 200 μM, pH 7.5, 37° C.
Description: Reagents: All buffer salts were obtained from Sigma Chemical Company (St. Louis, Mo.), and were of the highest purity available.
Ki Determinations: All assays are based on the ability of the test compound to inhibit the Cis catalyzed hydrolysis of the substrate Z-Gly-Arg-5-Bzl via an intermediate reaction with 5,5′-dithio-bis(2-nitrobenzoic acid) (DTNB). [Complement C1s is available commercially from Enzyme Research, South Bend, Ind.] In a typical Ki determination, substrate is prepared in DMSO, and diluted into an assay buffer consisting of 50 mM HEPES, 200 mM NaCl, pH 7.5. […] In general, substrate concentrations are lower than the experimentally determined value for Km. […]
In a typical Ki determination, into each well of a 96-well plate is pipetted 280 μL of substrate solution, 10 μL of test compound solution, and the plate allowed to thermally equilibrate at 37° C. for 15 minutes. Reactions were initiated by the addition of a 10 μL aliquot of the enzyme and the absorbance increase at 405 nm is recorded for 5 minutes in a Molecular Devices plate reader. […] The ratio of the velocity (rate of change in absorbance as a function of time) for a sample containing no test compound is divided by the velocity of a sample containing test compound, and is plotted as a function of test compound concentration. The data are fit to a linear regression, and the value of the slope of the line calculated. […]

4-[4-(3-{[(2,4-Difluorophenyl)sulfonyl]amino}phenyl)(1,3-thiazol-2-yl)]-5-methylthiophene-2-carboxamidine [Example 290]
Ki: 30 nM
